According to US20250129086A1, “COMPOUND FOR DEGRADING EGFR PROTEIN AND USE THEREOF” (TYK MEDICINES, INC., priority 2021, published 2025):

What was measured:
[1] = test system: H1975 (EGFR L858R/T790M double mutation); assay: Cell antiproliferative assay (CTG, 72 h), H1975; format: cell-based, human; settings: Homo sapiens, NCI-H1975, 72 h
Procedure, shortened: (§1)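 Cells seeded at 1500-2500 per well, compounds added about 24 h later as a 1:4 gradient from 10,000 nM top concentration in triplicate. After 72 h, viability read by CellTiter-Glo luminescence relative to 0.1% DMSO and blank-medium controls; IC50 from curve fitting.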

[2] = test system: PC-9 (EGFR exon 19 deletion); assay: Cell antiproliferative assay (CTG, 72 h), PC-9; format: cell-based, human; settings: Homo sapiens, PC-9, 72 h
Procedure, shortened: as §1

[3] = test system: HCC827 (exon 19 deletion mutation); assay: Cell antiproliferative assay (CTG, 72 h), HCC827; format: cell-based, human; settings: Homo sapiens, HCC827, 72 h
Procedure, shortened: as §1

[4] = target: T1, EGFR (Homo sapiens, UniProt P00533, DEL746-750); assay: EGFR PROTAC In Cell Western assay in HCC827; format: cell-based; settings: HCC827, EGFR degradation, 16 hours of incubation
T1 construct: host or cells: HCC827
Source text: Test Example 2 EGFR PROTAC in Cell Western Assay
HCC827 cell culture medium was purchased from Corning. Cell line HCC827 was purchased from BeNa Culture Collection; EGF Receptor (D38B1) XP Rabbit mAb antibody and β-Actin (8H10D10) Mouse mAb antibody were from CST. IRDye 800CW, IRDye 680RD, and Intercept blocking solution (PBS) were purchased from Licor. Triton-100 was purchased from sigma, and 96-well black cell culture imaging microtiter plates were purchased from Agilent.
1) HCC827 cells were cell counted and cells were inoculated into 96-well black cell culture imaging microtiter plates at a density of 40,000 cells per well, with 100 μl per well. The plate was incubated overnight in a CO2 incubator.
2) Day 1: A gradient dilution of the compound to be tested was added to the cells of the culture plate (with a starting concentration of […], 9 concentrations, a dilution ratio of 1:3, 2 duplicate wells), with a final concentration of DMSO being 0.5%, and a blank control of DMSO without compound. The plate was placed in the cell culture incubator for a final 16 hours of incubation.
3) The culture medium was removed from the 96 wells with a pipette and the residual medium was washed with […] of PBS per well on a shaker for 5 min. After the removal of PBS, cells were quickly fixed by adding 150 μl of fresh fixation buffer (3.7% paraformaldehyde) and incubated for 20 min at room temperature.
4) The fixation buffer was removed and […] of Triton elution buffer (0.3% Triton-100) was added to wash for four times on a shaker for 5 minutes each time.
5)[…] LI-COR Odyssey blocking solution was added and the cells were incubated for 1.5 hours at room temperature with slow shaking on a shaker.
6) To block the samples, a primary antibody against EGFR and Actin were prepared using Antibody Dilution Buffer at a ratio of 1:300. The blocking solution was poured out and the diluted primary antibody was added (at a total volume of 50 μl/per well). The cell plate was covered and incubated at 4° C. overnight.
7) The cell plate was washed four times with PBS+Triton X-100 for 5 minutes each time.
8) Fluorescently labeled secondary antibodies IRDye® 680RD and IRDye® 800CW were diluted with Antibody Dilution Buffer (with a ratio of 1:600, at a total volume of 50 μl/well) and then incubated for one hour at room temperature, protected from light.
9) The cell plate was washed four times with PBS+Triton X-100 for 5 minutes each time.
After pipetting the PBS thoroughly, the plate was inverted and imaged on a Burroughs imager. A multiple exposure program was selected, IRDye 680RD Blot was chosen for the first channel, and IRDye 800CW Blot was chosen for the second channel. […] The blank group was the DMSO group, EGFR/Actin was calculated as the EGFR value of the corresponding sample wells, and the degradation rate=100-100*EGFR signal/DMSO signal. The DC50 and Dmax of the degraded EGFR proteins were calculated by fitting curves using the Prism software, 3-parameter method.

T1 sequence (P00533 with tags, fused parts or gaps DEL746-750): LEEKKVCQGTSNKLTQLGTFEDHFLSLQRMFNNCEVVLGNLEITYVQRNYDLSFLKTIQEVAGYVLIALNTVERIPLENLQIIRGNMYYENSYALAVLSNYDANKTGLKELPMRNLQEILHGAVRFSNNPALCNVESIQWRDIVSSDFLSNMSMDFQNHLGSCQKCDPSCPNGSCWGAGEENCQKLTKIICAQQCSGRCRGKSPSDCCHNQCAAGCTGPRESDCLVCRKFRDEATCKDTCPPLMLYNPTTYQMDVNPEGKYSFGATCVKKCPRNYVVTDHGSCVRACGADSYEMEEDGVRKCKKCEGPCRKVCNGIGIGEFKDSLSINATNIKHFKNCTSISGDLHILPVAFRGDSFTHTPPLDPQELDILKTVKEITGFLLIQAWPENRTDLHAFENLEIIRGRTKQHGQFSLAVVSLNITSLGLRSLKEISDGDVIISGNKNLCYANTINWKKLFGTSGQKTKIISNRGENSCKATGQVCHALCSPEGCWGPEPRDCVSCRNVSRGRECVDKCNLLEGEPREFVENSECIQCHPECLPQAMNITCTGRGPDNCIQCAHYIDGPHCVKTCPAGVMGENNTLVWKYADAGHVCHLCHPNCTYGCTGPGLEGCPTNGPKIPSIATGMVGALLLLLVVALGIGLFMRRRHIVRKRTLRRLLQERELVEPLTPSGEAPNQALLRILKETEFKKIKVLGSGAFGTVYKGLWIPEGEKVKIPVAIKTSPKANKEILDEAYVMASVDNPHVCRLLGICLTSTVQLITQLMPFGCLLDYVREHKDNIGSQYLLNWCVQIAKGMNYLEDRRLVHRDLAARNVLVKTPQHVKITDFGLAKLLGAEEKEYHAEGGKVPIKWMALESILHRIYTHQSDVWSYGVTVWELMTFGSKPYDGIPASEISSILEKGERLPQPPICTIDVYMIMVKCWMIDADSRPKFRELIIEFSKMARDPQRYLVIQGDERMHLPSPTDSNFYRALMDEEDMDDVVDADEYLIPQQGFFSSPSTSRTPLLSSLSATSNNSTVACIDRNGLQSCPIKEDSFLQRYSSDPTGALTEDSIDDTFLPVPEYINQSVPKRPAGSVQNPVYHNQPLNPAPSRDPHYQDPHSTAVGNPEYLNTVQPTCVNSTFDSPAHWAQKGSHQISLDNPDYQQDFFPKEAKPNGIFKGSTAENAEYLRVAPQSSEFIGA

SMILES | IC50 ([1]; Table 2, H1975 cells) [nM] | IC50 ([2]; Table 2, PC-9 cells) [nM] | IC50 ([3]; Table 2, HCC827 cells) [nM] | Dmax ([4]; HCC827, Table 4) [%] | DC50 ([4]; Table 4) [nM] | IC50 ([1]; Table 3, H1975 cells) [nM] | IC50 ([2]; Table 3, PC-9 cells) [nM] | IC50 ([3]; Table 3, HCC827 cells) [nM] | Dmax ([4]; HCC827, Table 5) [%] | DC50 ([4]; Table 5) [nM]
COc1cc(N2CCN(C(=O)CN3CCC(c4ccc(NC5CCC(=O)NC5=O)cc4)CC3)CC2)ccc1Nc1ncc(Cl)c(Nc2ccccc2P(C)(C)=O)n1 (centres unmarked) [Compound T-13] | 10 to 100 | 100 to 1000 | 100 to 1000 | 70 to 100 | ≤ 10 |  |  |  |  | 
COc1cc(N2CCN(C(=O)CN3CCC(c4ccc(NC5CCC(=O)NC5=O)cc4)CC3)CC2)ccc1Nc1ncc(C(F)(F)F)c(Nc2ccccc2C(C)=O)n1 (centres unmarked) [Compound T-47] | 10 to 100 | 100 to 1000 | 10 to 100 | 50 to 70 | 10 to 100 |  |  |  |  | 
COc1cc(N2CCN(C(=O)CN3CCC(c4ccc(NC5CCC(=O)NC5=O)cc4)CC3)CC2)c(C)cc1Nc1ncc(Cl)c(Nc2ccccc2C(C)=O)n1 (centres unmarked) [Compound T-57] | 10 to 100 | 100 to 1000 | 100 to 1000 | 50 to 70 | 10 to 100 |  |  |  |  | 
COc1cc(N2CCN(C(=O)CN3CCC(c4ccc(NC5CCC(=O)NC5=O)cc4)CC3)CC2C)ccc1Nc1ncc(Cl)c(Nc2ccccc2C(C)=O)n1 (centres unmarked) [Compound T-60] | 10 to 100 | 100 to 1000 | 100 to 1000 | 50 to 70 | 10 to 100 |  |  |  |  | 
COc1cc(N2CCN(C(=O)CN3CCC(c4ccc(NC5CCC(=O)NC5=O)cc4)CC3)C(C)C2)ccc1Nc1ncc(Cl)c(Nc2ccccc2C(C)=O)n1 (centres unmarked) [Compound T-63] | 10 to 100 | 100 to 1000 | 100 to 1000 | 50 to 70 | 100 to 1000 |  |  |  |  | 
COc1cc(N2CC3(CN(C(=O)CN4CCC(c5ccc(NC6CCC(=O)NC6=O)cc5)CC4)C3)C2)ccc1Nc1ncc(Cl)c(Nc2ccccc2C(C)=O)n1 (centres unmarked) [Compound T-66] | 10 to 100 | ≥ 1000 | 100 to 1000 | < 50 | 10 to 100 |  |  |  |  | 
COc1cc(N2CCN(C(=O)CN3CCN(c4ccc(NC5CCC(=O)NC5=O)cc4)CC3)CC2)ccc1Nc1ncc(Br)c(Nc2ccccc2C(C)=O)n1 (centres unmarked) [Compound T-84] | 10 to 100 | 100 to 1000 | 100 to 1000 | 70 to 100 | 10 to 100 |  |  |  |  | 
C=CC(=O)Nc1cc(Nc2ncc(Cl)c(Nc3ccccc3C(C)=O)n2)c(OC)cc1N1CCN(C(=O)CN2CCC(c3ccc(NC4CCC(=O)NC4=O)cc3)CC2)CC1 (centres unmarked) [Compound T-91] | 10 to 100 | 100 to 1000 | 10 to 100 | 50 to 70 | 10 to 100 |  |  |  |  | 
COc1cc(N2CCN(C(=O)CN3CCN(c4ccc(NC5CCC(=O)NC5=O)nc4)CC3)CC2)ccc1Nc1ncc(Cl)c(Nc2ccccc2C(C)=O)n1 (centres unmarked) [Compound T-101] | 100 to 1000 | 100 to 1000 | 100 to 1000 | 50 to 70 | 10 to 100 |  |  |  |  | 
COc1cc(N2CCC(N3CCN(C(=O)CN4CCC(c5ccc(NC6CCC(=O)NC6=O)cc5)CC4)CC3)CC2)ccc1Nc1ncc(Cl)c(Nc2ccccc2C(C)=O)n1 (centres unmarked) [Compound T-121] | 100 to 1000 | ≥ 1000 | 100 to 1000 | 50 to 70 | 100 to 1000 |  |  |  |  | 
COc1cc(N2CC3CC(C2)N3C(=O)CN2CCC(c3ccc(NC4CCC(=O)NC4=O)cc3)CC2)ccc1Nc1ncc(Cl)c(Nc2ccccc2C(C)=O)n1 (centres unmarked) [Compound T-125] | 100 to 1000 | ≥ 1000 | 100 to 1000 | < 50 | 10 to 100 |  |  |  |  | 
COc1cc(N2CCC(N(C)C(=O)CN3CCC(c4ccc(NC5CCC(=O)NC5=O)cc4)CC3)CC2)ccc1Nc1ncc(C(F)(F)F)c(Nc2ccccc2C(C)=O)n1 (centres unmarked) [Compound T-163] | 10 to 100 | 100 to 1000 | 100 to 1000 | 50 to 70 | 100 to 1000 |  |  |  |  | 
COc1cc(N2CC(NC(=O)CN3CCC(c4ccc(NC5CCC(=O)NC5=O)cc4)CC3)C2)ccc1Nc1ncc(Cl)c(Nc2ccccc2C(C)=O)n1 (centres unmarked) [Compound T-169] | 100 to 1000 | 100 to 1000 | 100 to 1000 | < 50 | ≥ 1000 |  |  |  |  | 
COc1cc(N2CC[C@H](N(C)C(=O)CN3CCC(c4ccc(NC5CCC(=O)NC5=O)cc4)CC3)C2)ccc1Nc1ncc(Cl)c(Nc2ccccc2C(C)=O)n1 (some centres unmarked) [Compound T-172] | 100 to 1000 | ≥ 1000 | 10 to 100 | < 50 | 10 to 100 |  |  |  |  | 
COc1cc(N2CCN(CCN3CCC(c4ccc(NC5CCC(=O)NC5=O)cc4)CC3)CC2)ccc1Nc1ncc(Cl)c(Nc2ccccc2C(C)=O)n1 (centres unmarked) [Compound T-182] | 10 to 100 | 100 to 1000 | 100 to 1000 | 50 to 70 | 10 to 100 |  |  |  |  | 
CNC(=O)c1ccccc1Nc1nc(Nc2ccc(N3CCN(C(=O)CN4CCC(c5ccc(NC6CCC(=O)NC6=O)cc5)CC4)CC3)cc2OC)ncc1Cl (centres unmarked) [Compound T-184] | ≤ 10 | 100 to 1000 | 10 to 100 | 70 to 100 | 10 to 100 | 7.72 | 122 | 14.2 | 70.8 | 10.2
CNC(=O)c1ccccc1Nc1nc(Nc2ccc(N3CCN(C(=O)CN4CCC(c5ccc(NC6CCC(=O)NC6=O)cc5)CC4)CC3)cc2OC)ncc1Br (centres unmarked) [Compound T-185] | ≤ 10 | 100 to 1000 | 10 to 100 | 70 to 100 | ≤ 10 |  |  |  |  | 
COc1cc(N2CCN(C(=O)CN3CCC(c4ccc(NC5CCC(=O)NC5=O)cc4)CC3)CC2)ccc1Nc1ncc(Cl)c(Nc2ccccc2C(=O)C(C)C)n1 (centres unmarked) [Compound T-190] | 10 to 100 | 100 to 1000 | 100 to 1000 | 50 to 70 | ≥ 1000 |  |  |  |  | 
COc1cc(N2C3CCC2CN(C(=O)CN2CCC(c4ccc(NC5CCC(=O)NC5=O)cc4)CC2)C3)ccc1Nc1ncc(Cl)c(Nc2ccccc2C(C)=O)n1 (centres unmarked) [Compound T-191] | 10 to 100 | 100 to 1000 | 100 to 1000 | 50 to 70 | 100 to 1000 |  |  |  |  | 
COc1cc(N2CCN(C(=O)CN3CCC(c4ccc(NC5CCC(=O)NC5=O)cc4)CC3)CC2)ccc1Nc1ncc(Cl)c(Nc2ccccc2C(=O)N(C)C)n1 (centres unmarked) [Compound T-198] | ≤ 10 | 100 to 1000 | 100 to 1000 | 50 to 70 | ≤ 10 |  |  |  |  | 
COc1nc(N2CCN(C(=O)CN3CCC(c4ccc(NC5CCC(=O)NC5=O)cc4)CC3)CC2)ccc1Nc1ncc(Cl)c(Nc2ccccc2P(C)(C)=O)n1 (centres unmarked) [Compound T-203] | 10 to 100 | 100 to 1000 | 10 to 100 | 50 to 70 | 10 to 100 |  |  |  |  | 
COc1cc(N2CCC(N3CCN(C(=O)CN4CCC(c5ccc(NC6CCC(=O)NC6=O)cc5)CC4)CC3)CC2)ccc1Nc1ncc(Cl)c(Nc2ccccc2N(C)S(C)(=O)=O)n1 (centres unmarked) [Compound T-211] | 10 to 100 | 100 to 1000 | 10 to 100 | 50 to 70 | 10 to 100 |  |  |  |  | 
COc1cc(N2CCC(N3CCN(C(=O)CCCCN4CCC(c5ccc(NC6CCC(=O)NC6=O)cc5)CC4)CC3)CC2)ccc1Nc1ncc(Cl)c(Nc2ccccc2N(C)S(C)(=O)=O)n1 (centres unmarked) [Compound T-220] | 10 to 100 | 100 to 1000 | 100 to 1000 | < 50 | 10 to 100 |  |  |  |  | 
COc1cc(N2CCC(N3CCN(C(=O)CCCCN4CCN(c5ccc6c(c5)C(=O)N(C5CCC(=O)NC5=O)C6=O)CC4)CC3)CC2)ccc1Nc1ncc(Cl)c(Nc2ccccc2C(C)=O)n1 (centres unmarked) [Compound T-221] | 100 to 1000 | ≥ 1000 | ≥ 1000 | < 50 | 100 to 1000 |  |  |  |  | 
